Assay results published in the NIST ThermoML archive (doi:10.1021/je060271a).
± gives the expanded uncertainty stated by the source.

Settings: 283.14 K, Liquid, Vibrating tube method

Measured: mass density

CCCCCCC(=O)OCC(COC(=O)CCCCCC)(COC(=O)CCCCCC)COC(=O)CCCCCC [pentaerythritol tetraheptanoate]
989.7 ± 1.2 kg/m3: 6540.3 kPa | 6564.2 kPa | 6573.4 kPa | 6583.9 kPa | 6596.7 kPa | 6618.3 kPa | 6631.8 kPa | 6642.5 kPa | 6653 kPa | 6664.1 kPa | 6688.4 kPa | 6699.5 kPa | 6712.6 kPa | 6759.9 kPa | 6771.5 kPa | 6856.3 kPa
990.8 ± 1.2 kg/m3: 8446.4 kPa | 8503.5 kPa | 8524.7 kPa | 8542.8 kPa | 8560.9 kPa | 8619.5 kPa | 8638.2 kPa | 8679.6 kPa | 8698 kPa | 8716.6 kPa | 8800.4 kPa
989.6 ± 1.2 kg/m3: 6282.8 kPa | 6304.3 kPa | 6314.1 kPa | 6345.6 kPa | 6377.5 kPa | 6387.7 kPa | 6397.9 kPa | 6410 kPa | 6420.4 kPa | 6452.9 kPa | 6473.8 kPa | 6484 kPa | 6494.6 kPa | 6506.6 kPa | 6517 kPa | 6527.7 kPa | 6607.2 kPa
989.2 ± 1.2 kg/m3: 5889.4 kPa | 5944.2 kPa | 5971.7 kPa | 6000.4 kPa
990.5 ± 1.2 kg/m3: 7920.5 kPa | 7955 kPa | 8005.3 kPa | 8020.9 kPa | 8039.9 kPa | 8071.5 kPa | 8091.2 kPa | 8107.4 kPa | 8140 kPa | 8156.7 kPa | 8176.8 kPa | 8226.8 kPa | 8263.9 kPa | 8317.9 kPa | 8355.3 kPa
990.7 ± 1.2 kg/m3: 8280.8 kPa | 8467.8 kPa | 8485.5 kPa | 8601.1 kPa | 8660.8 kPa | 8739.2 kPa
990.2 ± 1.2 kg/m3: 7429.3 kPa | 7442.8 kPa | 7456.9 kPa | 7471.1 kPa | 7501.3 kPa | 7604.7 kPa | 7682.9 kPa | 7715.2 kPa | 7823 kPa
989.5 ± 1.2 kg/m3: 6055.5 kPa | 6084.6 kPa | 6113.4 kPa | 6223.2 kPa | 6232.9 kPa | 6242.4 kPa | 6263.6 kPa | 6273.3 kPa | 6294.6 kPa | 6325.9 kPa | 6335.9 kPa | 6355.6 kPa | 6367.7 kPa | 6431 kPa | 6440.8 kPa | 6463.6 kPa | 6550.9 kPa
989.4 ± 1.2 kg/m3: 5925.4 kPa | 6028.4 kPa | 6075.2 kPa | 6124.2 kPa | 6133.5 kPa | 6142.8 kPa | 6153.4 kPa | 6162.9 kPa | 6172.4 kPa | 6182.1 kPa | 6193.1 kPa | 6202.5 kPa | 6212.1 kPa | 6254.1 kPa
990.9 ± 1.2 kg/m3: 8578.8 kPa | 8758 kPa | 8820.1 kPa | 8839.6 kPa | 8863 kPa | 8882.8 kPa | 8923.2 kPa
990.1 ± 1.2 kg/m3: 7045.1 kPa | 7244.9 kPa | 7258.2 kPa | 7273.8 kPa | 7300 kPa | 7315.9 kPa | 7342.5 kPa | 7385.8 kPa | 7399.3 kPa | 7413.1 kPa | 7487.7 kPa | 7515.3 kPa | 7546.5 kPa | 7561.7 kPa
989.3 ± 1.2 kg/m3: 5880.4 kPa | 5899.2 kPa | 5907.7 kPa | 5916.4 kPa | 5935.4 kPa | 5952.8 kPa | 5962.7 kPa | 5980.7 kPa | 5989.5 kPa | 6009 kPa | 6017.5 kPa | 6037.6 kPa | 6046.5 kPa | 6066.2 kPa | 6094.9 kPa | 6104.1 kPa
990.3 ± 1.2 kg/m3: 7372.2 kPa | 7532 kPa | 7576.2 kPa | 7590.2 kPa | 7622 kPa | 7636.1 kPa | 7651 kPa | 7668.2 kPa | 7697.4 kPa | 7760.2 kPa | 7793 kPa | 7855.8 kPa
990.4 ± 1.2 kg/m3: 7729.3 kPa | 7744.5 kPa | 7775.4 kPa | 7808 kPa | 7841 kPa | 7871.2 kPa | 7889.8 kPa | 7904.8 kPa | 7939.2 kPa | 7970.7 kPa | 7986.3 kPa | 8056 kPa | 8123.4 kPa | 8193.5 kPa
990 ± 1.2 kg/m3: 7032.3 kPa | 7084.7 kPa | 7109.5 kPa | 7137 kPa | 7149.8 kPa | 7165.1 kPa | 7190.7 kPa | 7203.7 kPa | 7219 kPa | 7232.1 kPa | 7287 kPa | 7329.2 kPa | 7355.8 kPa
989.8 ± 1.2 kg/m3: 6677.7 kPa | 6723.8 kPa | 6735.3 kPa | 6782.8 kPa | 6794.2 kPa | 6807.8 kPa | 6818.9 kPa | 6830.8 kPa | 6844.4 kPa | 6868.3 kPa | 6981.6 kPa | 7020.3 kPa | 7057.7 kPa
991 ± 1.2 kg/m3: 8777.1 kPa | 8902.7 kPa
990.6 ± 1.2 kg/m3: 8210.2 kPa | 8246.8 kPa | 8301 kPa | 8338.2 kPa | 8372.7 kPa | 8393.6 kPa | 8411 kPa | 8428.8 kPa
989.9 ± 1.2 kg/m3: 6746.7 kPa | 6879.7 kPa | 6894 kPa | 6905.9 kPa | 6917.3 kPa | 6929.4 kPa | 6943.4 kPa | 6955.3 kPa | 6967.2 kPa | 6993.5 kPa | 7005.9 kPa | 7072.1 kPa | 7096.9 kPa | 7124.4 kPa | 7178.1 kPa
